Results: publication PMC7714403 (JCI Insight, 2020)
Several values for one entry are separate records, joined by “and”; a condition that tells them apart may be missing. Identical values can stand only once.

Columns and labels:
[1] = target: MAP4K3 (Homo sapiens, UniProt Q8IVH8); experiment: KiNativ, OCI cells live cell; format: cell-based; conditions: labeling site Lys2, peptide DIKGANILLTDNGHVK
[2] = target: p38a (Homo sapiens, UniProt Q16539); experiment: KiNativ, OCI cells live cell; format: cell-based
[3] = target: HCK (Homo sapiens, UniProt P08631); experiment: KiNativ, OCI cells live cell; format: cell-based; conditions: 2 h, labeling site Activation Loop, peptide […]
[4] = target: CHED (Homo sapiens, UniProt Q14004); experiment: KiNativ, OCI cells live cell; format: cell-based; conditions: labeling site Lys2, peptide DIKCSNILLNNR
[5] = test system: MAP2K1, MAP2K2; experiment: KiNativ, OCI cells live cell; format: cell-based, human; conditions: labeling site Lys2, peptide DVKPSNILVNSR
[6] = test system: PCTAIRE1, PCTAIRE3; experiment: KiNativ, OCI cells live cell; format: cell-based, human; conditions: labeling site Lys2, peptide DLKPQNLLINER
[7] = Tolerability studies in tumor-bearing mice; format: in vivo; conditions: once daily continuously or 5 consecutive days per week, up to 3–6 weeks
Experimental: We performed tolerability studies in tumor-bearing 8- to 12-week-old female NOD-scid-γ (NSG) mice.
days/week, along with vehicle, was administered in female NSG mice engrafted with MOLM13 -Luc+ and
MOLM13-Res -Luc+ cells. Treatment started on day-7 and -13 post-tail vein injection (TVI) in MOLM13-Luc+
and MOLM13-Res -Luc+, respectively. Change in their daily weights (%) were followed for tolerability.
(1 picture or pasted object on this page, not shown here)

[8] = test system: ZC1/HGK, ZC2/TNIK, ZC3/MINK; experiment: KiNativ, OCI cells live cell; format: cell-based, human; conditions: labeling site Lys2, peptide DIKGQNVLLTENAEVK
[9] = test system: MAPKAPK2, MAPKAPK3; experiment: KiNativ, MOLM13 live cells; format: cell-based, human; conditions: 100 nM, 2 hours; Lys2
Experimental: (§1) Samples were analyzed by KiNativ in situ kinase profiling by ActivX Biosciences.

[10] = test system: CK1g1, CK1g2, CK1g3; experiment: KiNativ, MOLM13 live cells; format: cell-based, human; conditions: 100 nM, 2 hours; ATP Loop
Experimental: as §1

[11] = test system: MST4, YSK1; experiment: KiNativ, MOLM13 live cells; format: cell-based, human; conditions: 100 nM, 2 hours; Lys2
Experimental: as §1

[12] = test system: Wnk1, Wnk2, Wnk4; experiment: KiNativ, MOLM13 live cells; format: cell-based, human; conditions: 100 nM, 2 hours; Activation Loop
Experimental: as §1

[13] = test system: Wnk1, Wnk2, Wnk3; experiment: KiNativ, MOLM13 live cells; format: cell-based, human; conditions: 100 nM, 2 hours; Lys2
Experimental: as §1

[14] = test system: IKKe, TBK1; experiment: KiNativ, MOLM13 live cells; format: cell-based, human; conditions: 100 nM, 2 hours; Lys2
Experimental: as §1

[15] = test system: AurA, AurB, AurC; experiment: KiNativ, MOLM13 live cells; format: cell-based, human; conditions: 100 nM, 2 hours; ATP Loop
Experimental: as §1

[16] = test system: PCTAIRE1, PCTAIRE3; experiment: KiNativ, MOLM13 live cells; format: cell-based, human; conditions: 100 nM, 2 hours; Lys2
Experimental: as §1

[17] = test system: KSR1, KSR2; experiment: KiNativ, MOLM13 live cells; format: cell-based, human; conditions: 100 nM, 2 hours; Activation Loop
Experimental: as §1

[18] = test system: MARK2, MARK3; experiment: KiNativ, MOLM13 live cells; format: cell-based, human; conditions: 100 nM, 2 hours; Lys2
Experimental: as §1

[19] = test system: p38d, p38g; experiment: KiNativ, MOLM13 live cells; format: cell-based, human; conditions: 100 nM, 2 hours; Lys2
Experimental: as §1

[20] = test system: ZC1/HGK, ZC2/TNIK, ZC3/MINK; experiment: KiNativ, MOLM13 live cells; format: cell-based, human; conditions: 100 nM, 2 hours; Lys2
Experimental: as §1

[21] = test system: AKT2, AKT3; experiment: KiNativ, MOLM13 live cells; format: cell-based, human; conditions: 100 nM, 2 hours; ATP Loop
Experimental: as §1

[22] = test system: PI4KA, PI4KAP2; experiment: KiNativ, MOLM13 live cells; format: cell-based, human; conditions: 100 nM, 2 hours; ATP
Experimental: as §1

[23] = test system: ABL, ARG; experiment: KiNativ, MOLM13 live cells; format: cell-based, human; conditions: 100 nM, 2 hours
Experimental: as §1

[24] = test system: SRPK1, SRPK2; experiment: KiNativ, MOLM13 live cells; format: cell-based, human; conditions: 100 nM, 2 hours; Lys1
Experimental: as §1

[25] = test system: CaMK2a, CaMK2b, CaMK2d, CaMK2g; experiment: KiNativ, MOLM13 live cells; format: cell-based, human; conditions: 100 nM, 2 hours; Lys2
Experimental: as §1

[26] = test system: MSK1 domain1, MSK2 domain1; experiment: KiNativ, MOLM13 live cells; format: cell-based, human; conditions: 100 nM, 2 hours; ATP Loop
Experimental: as §1

[27] = test system: JNK1, JNK2, JNK3; experiment: KiNativ, MOLM13 live cells; format: cell-based, human; conditions: 100 nM, 2 hours; Lys2
Experimental: as §1

[28] = test system: MST1, MST2; experiment: KiNativ, MOLM13 live cells; format: cell-based, human; conditions: 100 nM, 2 hours; Lys2
Experimental: as §1

[29] = test system: MAP2K1, MAP2K2; experiment: KiNativ, MOLM13 live cells; format: cell-based, human; conditions: 100 nM, 2 hours; Lys2
Experimental: as §1

[30] = test system: NEK6, NEK7; experiment: KiNativ, MOLM13 live cells; format: cell-based, human; conditions: 100 nM, 2 hours; Lys2
Experimental: as §1

[31] = test system: Wnk1, Wnk2; experiment: KiNativ, MOLM13 live cells; format: cell-based, human; conditions: 100 nM, 2 hours; ATP Loop
Experimental: as §1

[32] = test system: CDK11, CDK8; experiment: KiNativ, MOLM13 live cells; format: cell-based, human; conditions: 100 nM, 2 hours; Lys2
Experimental: as §1

[33] = test system: TAO1, TAO3; experiment: KiNativ, MOLM13 live cells; format: cell-based, human; conditions: 100 nM, 2 hours; Lys2
Experimental: as §1

[34] = test system: PCTAIRE2, PCTAIRE3; experiment: KiNativ, MOLM13 live cells; format: cell-based, human; conditions: 100 nM, 2 hours; Lys1
Experimental: as §1

[35] = test system: MAP3K2, MAP3K3; experiment: KiNativ, MOLM13 live cells; format: cell-based, human; conditions: 100 nM, 2 hours; Lys2
Experimental: as §1

[36] = test system: NDR1, NDR2; experiment: KiNativ, MOLM13 live cells; format: cell-based, human; conditions: 100 nM, 2 hours; Activation Loop
Experimental: as §1

[37] = test system: MAP3K15, MAP3K5, MAP3K6; experiment: KiNativ, MOLM13 live cells; format: cell-based, human; conditions: 100 nM, 2 hours; Lys1
Experimental: as §1

[38] = test system: AMPKa1, AMPKa2; experiment: KiNativ, MOLM13 live cells; format: cell-based, human; conditions: 100 nM, 2 hours
Experimental: as §1

p38a, sequence (Q16539 whole entry): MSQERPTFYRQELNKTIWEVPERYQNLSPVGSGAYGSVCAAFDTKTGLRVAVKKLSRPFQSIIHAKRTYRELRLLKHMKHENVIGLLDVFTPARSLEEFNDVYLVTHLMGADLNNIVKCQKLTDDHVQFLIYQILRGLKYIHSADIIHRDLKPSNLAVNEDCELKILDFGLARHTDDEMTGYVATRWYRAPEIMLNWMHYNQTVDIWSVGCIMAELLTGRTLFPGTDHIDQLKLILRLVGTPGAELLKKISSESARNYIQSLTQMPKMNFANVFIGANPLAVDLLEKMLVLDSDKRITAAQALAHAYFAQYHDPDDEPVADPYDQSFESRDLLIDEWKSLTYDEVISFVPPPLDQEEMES
HCK, sequence (P08631 whole entry): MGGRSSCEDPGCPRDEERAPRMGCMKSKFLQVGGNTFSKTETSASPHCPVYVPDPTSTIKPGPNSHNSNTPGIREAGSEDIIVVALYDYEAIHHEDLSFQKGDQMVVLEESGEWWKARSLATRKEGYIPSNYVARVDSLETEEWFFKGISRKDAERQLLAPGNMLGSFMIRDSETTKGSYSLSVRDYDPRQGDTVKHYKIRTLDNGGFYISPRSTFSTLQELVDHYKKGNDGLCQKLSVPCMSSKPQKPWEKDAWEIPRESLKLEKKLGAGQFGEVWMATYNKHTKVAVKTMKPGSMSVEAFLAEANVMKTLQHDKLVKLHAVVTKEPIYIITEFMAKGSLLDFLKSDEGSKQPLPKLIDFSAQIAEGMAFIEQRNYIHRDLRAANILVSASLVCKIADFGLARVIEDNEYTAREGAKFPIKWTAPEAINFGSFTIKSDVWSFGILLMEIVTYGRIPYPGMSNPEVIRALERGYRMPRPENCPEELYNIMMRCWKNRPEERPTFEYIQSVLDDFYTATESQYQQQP
MAP4K3, sequence (Q8IVH8 whole entry): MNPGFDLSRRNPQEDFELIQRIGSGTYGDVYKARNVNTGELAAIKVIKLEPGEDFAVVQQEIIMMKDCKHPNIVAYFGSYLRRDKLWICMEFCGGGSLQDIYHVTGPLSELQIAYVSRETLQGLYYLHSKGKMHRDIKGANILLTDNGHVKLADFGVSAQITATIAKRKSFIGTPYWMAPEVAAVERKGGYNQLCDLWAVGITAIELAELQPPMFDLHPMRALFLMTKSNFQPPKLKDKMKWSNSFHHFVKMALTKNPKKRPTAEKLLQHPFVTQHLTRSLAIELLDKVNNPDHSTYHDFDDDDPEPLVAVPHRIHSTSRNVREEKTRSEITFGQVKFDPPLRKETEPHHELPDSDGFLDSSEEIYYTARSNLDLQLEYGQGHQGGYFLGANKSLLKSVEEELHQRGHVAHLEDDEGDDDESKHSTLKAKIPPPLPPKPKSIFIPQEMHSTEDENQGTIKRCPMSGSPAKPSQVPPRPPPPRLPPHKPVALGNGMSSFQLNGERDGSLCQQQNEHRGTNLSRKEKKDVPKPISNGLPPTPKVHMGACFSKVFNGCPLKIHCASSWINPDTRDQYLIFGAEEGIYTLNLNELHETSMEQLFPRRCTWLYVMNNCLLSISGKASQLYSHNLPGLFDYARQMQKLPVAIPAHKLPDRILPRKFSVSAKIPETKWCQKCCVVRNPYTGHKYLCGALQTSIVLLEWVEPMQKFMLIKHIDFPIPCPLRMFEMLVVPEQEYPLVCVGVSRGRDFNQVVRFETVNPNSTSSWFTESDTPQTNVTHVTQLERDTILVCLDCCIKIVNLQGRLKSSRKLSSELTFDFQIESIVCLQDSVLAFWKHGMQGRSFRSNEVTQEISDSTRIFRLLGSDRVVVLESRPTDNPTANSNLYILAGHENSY
CHED, sequence (Q14004 whole entry): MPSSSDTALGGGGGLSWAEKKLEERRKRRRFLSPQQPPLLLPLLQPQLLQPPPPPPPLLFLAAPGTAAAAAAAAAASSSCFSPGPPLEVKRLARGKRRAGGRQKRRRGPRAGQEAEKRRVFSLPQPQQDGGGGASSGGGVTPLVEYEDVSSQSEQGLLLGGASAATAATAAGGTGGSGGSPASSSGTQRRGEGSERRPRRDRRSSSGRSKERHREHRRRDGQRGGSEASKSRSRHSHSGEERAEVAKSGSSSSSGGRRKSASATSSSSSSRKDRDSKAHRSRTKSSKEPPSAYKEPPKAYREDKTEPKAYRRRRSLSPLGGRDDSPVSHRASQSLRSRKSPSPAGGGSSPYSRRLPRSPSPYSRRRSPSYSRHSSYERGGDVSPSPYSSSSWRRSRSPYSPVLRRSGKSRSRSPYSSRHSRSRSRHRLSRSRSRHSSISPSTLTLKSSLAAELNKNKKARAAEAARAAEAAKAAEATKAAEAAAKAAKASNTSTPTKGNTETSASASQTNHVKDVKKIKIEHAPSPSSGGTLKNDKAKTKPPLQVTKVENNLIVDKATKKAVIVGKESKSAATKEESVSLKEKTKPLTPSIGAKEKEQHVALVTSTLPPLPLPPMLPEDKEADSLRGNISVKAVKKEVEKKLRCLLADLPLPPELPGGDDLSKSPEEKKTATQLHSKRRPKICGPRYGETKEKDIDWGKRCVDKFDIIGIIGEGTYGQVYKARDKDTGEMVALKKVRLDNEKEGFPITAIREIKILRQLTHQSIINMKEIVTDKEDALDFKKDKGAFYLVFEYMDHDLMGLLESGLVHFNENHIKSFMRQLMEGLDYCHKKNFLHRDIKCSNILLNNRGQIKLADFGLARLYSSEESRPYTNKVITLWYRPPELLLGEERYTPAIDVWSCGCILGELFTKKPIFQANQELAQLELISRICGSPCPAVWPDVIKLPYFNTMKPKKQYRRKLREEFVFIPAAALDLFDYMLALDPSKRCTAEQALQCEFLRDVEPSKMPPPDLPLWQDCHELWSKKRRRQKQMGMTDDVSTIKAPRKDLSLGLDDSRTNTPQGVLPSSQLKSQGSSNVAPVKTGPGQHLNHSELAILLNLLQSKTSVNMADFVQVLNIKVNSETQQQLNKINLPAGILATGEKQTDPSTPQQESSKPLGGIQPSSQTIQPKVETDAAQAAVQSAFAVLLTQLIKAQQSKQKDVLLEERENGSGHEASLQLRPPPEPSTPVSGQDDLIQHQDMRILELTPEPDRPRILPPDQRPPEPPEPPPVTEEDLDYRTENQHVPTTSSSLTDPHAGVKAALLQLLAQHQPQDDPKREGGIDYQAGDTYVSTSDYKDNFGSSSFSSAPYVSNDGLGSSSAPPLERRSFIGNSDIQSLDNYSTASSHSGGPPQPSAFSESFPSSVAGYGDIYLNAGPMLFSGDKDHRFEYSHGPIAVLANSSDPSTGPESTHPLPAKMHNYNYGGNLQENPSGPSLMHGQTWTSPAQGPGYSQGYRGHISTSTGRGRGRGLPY
CHED, sequence (O75909 whole entry partner): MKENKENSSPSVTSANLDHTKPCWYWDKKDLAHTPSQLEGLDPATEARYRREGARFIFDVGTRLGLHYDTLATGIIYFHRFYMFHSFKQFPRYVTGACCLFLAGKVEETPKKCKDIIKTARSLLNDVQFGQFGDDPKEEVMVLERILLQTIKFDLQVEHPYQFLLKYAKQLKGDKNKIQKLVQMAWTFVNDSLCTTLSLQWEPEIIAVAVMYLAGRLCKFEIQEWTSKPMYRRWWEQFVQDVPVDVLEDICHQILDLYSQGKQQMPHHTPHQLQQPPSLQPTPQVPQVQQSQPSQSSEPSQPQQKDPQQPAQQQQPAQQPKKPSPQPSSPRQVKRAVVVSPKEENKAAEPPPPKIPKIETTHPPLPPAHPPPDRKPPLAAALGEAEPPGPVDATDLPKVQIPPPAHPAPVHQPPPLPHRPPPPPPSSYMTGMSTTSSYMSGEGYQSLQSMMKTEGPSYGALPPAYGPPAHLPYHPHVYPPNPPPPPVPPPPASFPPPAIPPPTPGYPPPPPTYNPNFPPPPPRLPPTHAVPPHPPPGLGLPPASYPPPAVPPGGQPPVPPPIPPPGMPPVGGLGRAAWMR

CN1CCN(Cc2ccc(Nc3ncc(Cl)c(Nc4ccccc4S(=O)(=O)N(C)C)n3)cc2)CC1 [TP-0903]
Inhibition [1]: 64.9% | Inhibition ([2]; labeling site Lys2, peptide DLKPSNLAVNEDCELK): -2.7% | Inhibition ([2]; labeling site Other, peptide QELNKTIWEVPER): 5.6% | inhibition at 0.1 µM [3]: -3.8% | Inhibition [4]: 14.4% | Inhibition [5]: 11.7% | Inhibition [6]: 79.0% | Highest tolerated doses [7]: 40 mg/kg and 60 mg/kg | Inhibition [8]: -42.0% | Inhibition vs DMSO [9]: -22.0% | Inhibition vs DMSO [10]: -28.7% | Inhibition vs DMSO [11]: 39.6% | Inhibition vs DMSO [12]: -35.0% | Inhibition vs DMSO [13]: -31.8% | Inhibition vs DMSO [14]: 74.5% | Inhibition vs DMSO [15]: 68.0% | Inhibition vs DMSO [16]: 81.4% | Inhibition vs DMSO [17]: -11.7% | Inhibition vs DMSO [18]: 37.1% | Inhibition vs DMSO [19]: -8.7% | Inhibition vs DMSO [20]: 50.7% | Inhibition vs DMSO [21]: -63.3% | Inhibition vs DMSO [22]: 11.9% | Inhibition vs DMSO ([23]; Activation Loop): 5.0% | Inhibition vs DMSO ([23]; Lys1): 24.5% | Inhibition vs DMSO [24]: 21.8% | Inhibition vs DMSO [25]: -2.0% | Inhibition vs DMSO [26]: -6.6% | Inhibition vs DMSO [27]: 18.9% | Inhibition vs DMSO [28]: 41.2% | Inhibition vs DMSO [29]: -17.4% | Inhibition vs DMSO [30]: 7.8% | Inhibition vs DMSO [31]: -30.2% | Inhibition vs DMSO [32]: -1.1% | Inhibition vs DMSO [33]: 9.9% | Inhibition vs DMSO [34]: -8.3% | Inhibition vs DMSO [35]: -4.2% | Inhibition vs DMSO [36]: -0.8% | Inhibition vs DMSO [37]: -11.5% | Inhibition vs DMSO ([38]; Lys1): 19.6% | Inhibition vs DMSO ([38]; Lys2): 33.8%
